Test results reported in the NIST ThermoML archive (doi:10.1016/j.jct.2019.03.001).
Numbers after ± are expanded uncertainties.

Test: refractive index (Na D-line) (dimensionless)
Settings: 293.15 K; 101.33 kPa; Liquid; Standard Abbe refractometry

refractive index: 1.3993 ± 0.0007
SMILES: CCCCO [butan-1-ol]
